According to patent US5234909A, “Dipeptidic amides derived from glycyl-serine as surfactants or hydrating agents and cosmetic, pharmaceutical or alimentary compositions containing the same” (L'Oreal, priority 1991, dated 1993):
Where a SMILES comes first, the peptide text is derived from it. [ ]: non-standard residue; d: D form. The star is where a group is joined. ξ: configuration not given here. Oleoyl = CCCCCCCC/C=C\CCCCCCCC(=O)*; Lauroyl = CCCCCCCCCCCC(=O)*; ξS = NC(CO)C(=O)O

Key:
[1] = Foaming power study (foam developed by brush in rotating graduated container); type: physicochemical; conditions: 5% aqueous solution (weight/volume), 5 ml with 6 mg natural feminine sebum; for Foam Height (cm) at the end of a time of 60 sec: 60 sec of stirring; for Foam Height (cm) at the end of a time of 120 sec: 120 sec of stirring; for Foam Height (cm) at the end of a time of 180 sec: 180 sec of stirring
Experimental: The test consists in developing the foam using a brush made of natural hog bristles (length=18 mm) displaced in a plexiglass graduated cylindrical container (inside diameter=35 mm). This container is driven in a uniform circular motion which is the reverse of that described by the brush. This permits a good distribution of the foam in the graduated container despite the small amounts developed. (brush speed =100 rpm, container speed =10 rpm). The procedure is carried out using 5 ml of each solution studied to which has been added 6 mg of natural feminine sebum. The foam heights are recorded after one, two and three minutes of stirring.

[2] = tested on: human stratum corneum previously delipidated; assay: Hydrating effect on the skin: reduction of water loss of delipidated stratum corneum (evaporimeter); conditions: 3% solution in 2:1 dichloromethane:methanol applied on delipidated human stratum corneum; measured 3 hours after treatment
Experimental: In this test, the hydrating effect is evaluated by measuring the reduction of water loss of human stratum corneum previously delipidated. The stratum corneum is delipidated for one hour with a 2:1 dichloromethane/methanol mixture.
This test is effected in accordance with a method analogous to that described by J. L. Leveque et coll., J. Soc. Cosmet. Chem., 30, 333-343 (1979).
The following procedures are carried out:
The water flow (g/m^2.H) traversing a sample of stratum corneum placed below a water reservoir is measured. Using an evaporimeter (Servomed, registered mark), the evaporation values before and after treatment are registered, and the eventual reduction of the insensible loss of water is thus determined.
The treatment consists in applying on the sample of stratum corneum […] of a 3% solution in a 2:1 dichloromethane: methanol mixture of the compound being studied. The measurements are carried out 3 hours after this treatment.
On the basis of this test the compound of Example 2 is compared with N-oleoyl-glycyl-glycine (compound B) and with the olvent (2:1 dichloromethane:methanol) alone.

Row | SMILES | Foam Height (cm) at the end of a time of 60 sec [1] [cm] | Foam Height (cm) at the end of a time of 120 sec [1] [cm] | Foam Height (cm) at the end of a time of 180 sec [1] [cm] | Reduction of the insensible loss of water [2]
1 | CCCCCCCCCCCC(=O)NCC(=O)NC(CO)C(=O)[O-].[Na+] (centres unmarked) [Ex. 5, Sodium Salt of N-dodecanoyl-glycyl-(D,L) Serine] (Lauroyl-Gly-[ξS]-OH) | 12.5 | 21.25 | 28.75 | –
2 | CCCCCCCC/C=C\CCCCCCCC(=O)NCC(=O)NC(CO)C(=O)O (centres unmarked) [Example 2, N-oleoyl-glycyl-(D,L) Serine] (Oleoyl-Gly-[ξS]-OH) | – | – | – | 32% ± 3
3 | CCCCCCCCCCCC(=O)NCC(=O)NCC(=O)[O-].[Na+] [compound A, sodium salt of N-dodecanoyl-glycyl-glycine] (Lauroyl-Gly-Gly-OH) | 11.25 | 13.75 | 20 | –
4 | CCCCCCCC/C=C\CCCCCCCC(=O)NCC(=O)NCC(=O)O [compound B, N-oleoyl-glycyl-glycine] (Oleoyl-Gly-Gly-OH) | – | – | – | 6% ± 3
